The assay relates to CEM cells HIV-1 protection, formazan growth assay. The assay is described as follows: NCI AIDS Antiviral Assay. Conditions: for IC50: measured here: growth of uninfected CEM cells. The method in brief: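 Soluble formazan readout of cell growth; CEM cells ± HIV-1; 5 drug concs. ≥50% protection → retest; ≥50% again = moderately active; reproducible 100% = confirmed active.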

From PubChem BioAssay AID179 (DTP/NCI, 2004) come the findings set out here.

Molecules are shown by their SMILES. “And” between values parts separate entries of the source, which are not always exact repeats. Equal values may be shown once. The source made the active and inactive calls.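 How the source made its calls: active means compounds giving half or more protection of infected cells from virus-caused growth loss, again on retest; inactive means the rest.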

The EC50 is the concentration that produces a half-maximal response. As a reminder, the IC50 is the concentration at which inhibition is half-maximal. A lower IC50 goes with inhibition by little substance. On to `CC1(C)CCCCC1/C=C/C(CC(O)(C(F)(F)F)C(F)(F)F)=N\Nc1ccc([N+](=O)[O-])cc1[N+](=O)[O-]` (configuration not stated), for which the EC50 is greater than 2 µM and the IC50 turned out to be 0.468 µM.

Turning to `COc1cccc2c1CCc1ccccc1CC2=O`, the EC50 is greater than 53.7 µM and the IC50 was greater than 53.7 µM.

Regarding `C=C(C)CN(CC(=C)C)C(=N)OCC1CCCO1` (configuration not stated), the EC50 is greater than 200 µM and the IC50 is greater than 200 µM.

Take `O=C1C(=Cc2ccco2)C(=O)C2CCCCC12` (configuration not stated): the EC50 is greater than 200 µM and the IC50 was determined as 166 µM.

Regarding `COc1cc(Nc2cnc3cc(F)c(F)cc3n2)cc(OC)c1`, the EC50 is greater than 200 µM and the concentration for half-maximal inhibition (IC50) is greater than 200 µM.

For `O=C1CCC2CCOc3ccc(O)c1c32` (configuration not stated), the result was inactive.

`C[N+](C)(C)CC1CCCC(C[N+](C)(C)C)C1=NO` (configuration not stated): the result was inactive.

As to `C(=Nc1cnc2ccccc2c1)c1cccnc1`, the EC50 is greater than 1070 µM and the IC50 worked out at 195 µM.

Consider `O=[N+]([O-])c1ccc2[nH]nc(OCc3ccccc3Cl)c2c1`, for which the EC50 was greater than 129 µM and the IC50 was greater than 129 µM.

For the compound `N=C1C=CC2C(=Nc3ccccc3[N+]2=O)N1Cc1ccncc1` (configuration not stated), the EC50 was greater than 22.4 µM and the IC50 came to 21.4 µM.

Consider `N#CC12C3C4C5C3C1C(C42)n1c(=O)n(-c2ccccc2)c(=O)n15` (configuration not stated), for which the EC50 is greater than 200 µM and the IC50 was greater than 200 µM.

Turning to `CCN(CC)CSc1nc2ccccc2[nH]1`, the result was inactive.

For the compound `CCCCC(=O)N1C(=O)/C(=C\N(C)C)c2cc(C=O)ccc21`, the EC50 is greater than 200 µM and the IC50 was 29.5 µM.

For `CC1=C[C@H]2O[C@@H]3[C@H](O)[C@@H](O)[C@](C)(C2(COC(=O)CCl)CC1)[C@@]31CO1` (some centres not stated), the EC50 is greater than 6.92 µM and the IC50 stood at 0.0178 µM.

Consider `CC1(C)OC2[C@@H](CO[C@@]3([C@H]4OC(C)(C)O[C@@H]4CO)OC(C)(C)O[C@@H]23)O1` (some centres not stated), for which the EC50 was greater than 200 µM and the IC50 is greater than 200 µM.

Take `O=c1[nH]n(Cc2ccccc2Cl)c2ccccc12`: the EC50 was greater than 200 µM and the IC50 was greater than 200 µM.

Regarding `CCCCCC=C(c1cc(I)c(OC)c(C(=O)OC)c1)c1cc(I)c(OC)c(C(=O)OC)c1`, the EC50 was greater than 200 µM and the IC50 turned out to be 166 µM.

Consider `CCCCCC(=O)Cc1cc(O)cc2c1C(=O)Oc1cc(O)c(C(=O)O)c(CCCCC)c1O2`, for which the EC50 is greater than 200 µM and the IC50 was found to be 33.9 µM.

Regarding `NNC(=S)NN/C=C(\C=Nc1ccccc1)[N+](=O)[O-]`, the EC50 was greater than 178 µM and the IC50 is 155 µM.

`CCNC(=O)Sc1ccccc1C(=O)N[C@H](C)C(N)=O` displayed an EC50 of 1.15 µM and an IC50 of 93.3 µM.

Regarding `CC(C)=CCCC1(C)C=Cc2c(ccc3c(C)noc23)O1` (configuration not stated), the EC50 is greater than 18.2 µM and the IC50 is greater than 18.2 µM.

Consider `CCOC(=O)c1c(-c2ccccc2)c(-c2ccccc2)cn1C`, for which the EC50 was greater than 200 µM and the IC50 amounted to 46.8 µM.

`C=CCNC1=C(C(=O)OCC)C(=O)CO1`: the EC50 was greater than 1170 µM and the IC50 is greater than 1170 µM.

With `CC1=C[P+](Cc2ccccc2)(c2ccccc2)CC1` (configuration not stated), the 50% inhibitory concentration (IC50) is 186 µM and 72.4 µM.

With `CC[C@@]12N=C(N(C)C)C[C@]1(O)ON=C2C`, the EC50 is greater than 200 µM and the IC50 is greater than 200 µM.

Regarding `COc1cc(CC(C)N[C@@H](C)c2ccccc2)cc(OC)c1` (some centres not stated), the EC50 is greater than 200 µM; the IC50 was 18.6 µM and 64.6 µM.

In the case of `Cc1cccc(NC(=O)Nc2ccccc2)n1`, the EC50 was greater than 200 µM and the IC50 was 97.7 µM.

With `COc1ccc(C(O)C2c3c(cc4c(c3OC)OCO4)CCN2C)c(CO)c1OC` (configuration not stated), the result was inactive.

With `Cc1c(C#N)c(N)n(C2OC(CO)C(O)C(O)C2O)c(=S)c1C#N` (configuration not stated), the EC50 was greater than 200 µM and the IC50 is greater than 200 µM.

In the case of `O=C(NNC(=S)NCc1ccccc1)c1csc(NC(=S)NC2CCCCC2)n1`, the EC50 was greater than 200 µM and the IC50 worked out at 57.5 µM.

In the case of `CC(=O)CCn1ncc(Cl)c(Cl)c1=O`, the EC50 is greater than 550 µM and the IC50 came to 6.92 µM.
